{"source": "ChEMBL document CHEMBL5338739", "about": "“Discovery of Dual Lysine Methyltransferase G9a and EZH2 Inhibitors with In Vivo Efficacy against Malignant Rhabdoid Tumor” (J Med Chem, 2023)", "key": {"[1]": {"test_system": "RD", "test": "Downregulation of H3K27me3 expression in human RD cells at 5 uM incubated for 6 days by Western blotting analysis", "type": "functional, cell-based", "settings": "time 6.0 day"}, "[2]": {"test": "AUC (0 to 24 hrs) in Sprague-Dawley rat at 10 mg/kg, iv administered for 12 hrs by HPLC analysis", "type": "ADME, organism-based", "parameters": "dose 10 mg/kg, time 12 hrs, route iv", "settings": "in vivo"}, "[3]": {"test": "AUC (0 to infinity) in Sprague-Dawley rat at 10 mg/kg, iv administered for 12 hrs by HPLC analysis", "type": "ADME, organism-based", "parameters": "time 12 hrs, dose 10 mg/kg, route iv", "settings": "in vivo"}, "[4]": {"test": "AUC (0 to 24 hrs) in Sprague-Dawley rat at 30 mg/kg, po administered for 24 hrs by HPLC analysis", "type": "ADME, organism-based", "parameters": "time 24 hrs, dose 30 mg/kg, route po", "settings": "in vivo"}, "[5]": {"test": "Toxicity in BALB/c nude mouse xenografted with human RD cells assessed as mortality at 10 to 20 mg/kg, ip administered for 5 consecutive days followed by 2 rest days for 3 weeks", "type": "organism-based", "settings": "in vivo, 504 h, dose 10-20 mg/kg"}, "[6]": {"test": "Toxicity in BALB/c nude mouse xenografted with human RD cells assessed as body weight fluctuations at 10 to 20 mg/kg, ip administered for 5 consecutive days followed by 2 rest days for 3 weeks", "type": "organism-based", "settings": "in vivo, 504 h, dose 10-20 mg/kg"}, "[7]": {"test": "Tmax in Sprague-Dawley rat at 10 mg/kg, iv administered for 12 hrs by HPLC analysis", "type": "ADME, organism-based", "settings": "in vivo"}, "[8]": {"test": "Half life in Sprague-Dawley rat at 30 mg/kg, po administered for 24 hrs by HPLC analysis", "type": "ADME, organism-based", "settings": "in vivo"}, "[9]": {"biological_target": "T1, Histone-lysine N-methyltransferase EZH1 (Homo sapiens) (UniProt Q92800)", "T1 sequence (whole entry)": "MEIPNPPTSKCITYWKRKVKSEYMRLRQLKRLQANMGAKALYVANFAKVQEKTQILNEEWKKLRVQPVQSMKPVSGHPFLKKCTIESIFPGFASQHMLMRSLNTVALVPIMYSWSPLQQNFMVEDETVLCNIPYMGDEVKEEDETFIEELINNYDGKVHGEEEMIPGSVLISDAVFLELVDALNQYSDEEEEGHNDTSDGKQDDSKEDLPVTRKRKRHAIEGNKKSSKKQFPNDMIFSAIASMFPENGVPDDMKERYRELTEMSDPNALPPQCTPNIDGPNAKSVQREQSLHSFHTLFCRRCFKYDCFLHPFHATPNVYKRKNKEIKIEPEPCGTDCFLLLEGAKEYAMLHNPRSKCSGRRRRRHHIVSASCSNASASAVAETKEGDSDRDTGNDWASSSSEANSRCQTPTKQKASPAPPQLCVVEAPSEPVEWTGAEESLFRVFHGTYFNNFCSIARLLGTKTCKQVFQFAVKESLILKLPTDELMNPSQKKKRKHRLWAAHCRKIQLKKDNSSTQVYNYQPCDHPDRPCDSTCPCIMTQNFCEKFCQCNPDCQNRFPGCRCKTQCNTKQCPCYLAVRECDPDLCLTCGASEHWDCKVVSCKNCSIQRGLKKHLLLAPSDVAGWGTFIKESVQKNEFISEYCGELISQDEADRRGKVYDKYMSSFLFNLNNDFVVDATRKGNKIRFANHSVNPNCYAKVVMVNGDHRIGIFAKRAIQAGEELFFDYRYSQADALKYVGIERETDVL", "test": "Inhibition of human EZH1 using SAM as substrate at 10 uM by time-resolved fluorescence assay relative to control"}, "[10]": {"biological_target": "Histone-lysine N-methyltransferase SETDB1 (Homo sapiens) (UniProt Q15047)", "test": "Inhibition of SETDB1 (unknown origin) using SAM as substrate at 10 uM by time-resolved fluorescence assay relative to control"}, "[11]": {"test_system": "Mus musculus", "test": "Downregulation of H3K9me2 expression in tumor tissue of BALB/c nude mouse xenografted with human RD cells at 20 mg/kg, ip administered for 5 consecutive days followed by 2 rest days for 3 weeks by Western blotting analysis", "type": "functional, organism-based"}, "[12]": {"test_system": "RD", "test": "Downregulation of H3K36me2 expression in human RD cells at 5 uM incubated for 6 days by immunoblotting analysis", "type": "functional, cell-based", "settings": "time 6.0 day"}, "[13]": {"test": "Clearance in Sprague-Dawley rat at 30 mg/kg, po administered for 24 hrs by HPLC analysis", "type": "ADME, organism-based", "settings": "in vivo"}, "[14]": {"test_system": "RD", "test": "Cytotoxicity against human RD cells assessed as reduction in cell viability incubated for 72 hrs by MTT assay", "type": "functional"}, "[15]": {"biological_target": "T2, Histone-lysine N-methyltransferase EZH2 (Homo sapiens, UniProt Q15910)", "test": "Inhibition of human EZH2 using SAM as substrate incubated for 1 hr by microplate luminescence based HMT assay"}, "[16]": {"test": "Apparent volume of distribution in Sprague-Dawley rat at 10 mg/kg, iv administered for 12 hrs by HPLC analysis", "type": "ADME, organism-based", "settings": "in vivo, read-out: Vc"}, "[17]": {"test": "Cytotoxicity against human MCF-10A cells assessed as reduction in cell viability incubated for 72 hrs by MTT assay", "type": "toxicity, cell-based"}, "[18]": {"biological_target": "T3, N-lysine methyltransferase KMT5A (Homo sapiens) (UniProt Q9NQR1)", "T3 sequence (whole entry)": "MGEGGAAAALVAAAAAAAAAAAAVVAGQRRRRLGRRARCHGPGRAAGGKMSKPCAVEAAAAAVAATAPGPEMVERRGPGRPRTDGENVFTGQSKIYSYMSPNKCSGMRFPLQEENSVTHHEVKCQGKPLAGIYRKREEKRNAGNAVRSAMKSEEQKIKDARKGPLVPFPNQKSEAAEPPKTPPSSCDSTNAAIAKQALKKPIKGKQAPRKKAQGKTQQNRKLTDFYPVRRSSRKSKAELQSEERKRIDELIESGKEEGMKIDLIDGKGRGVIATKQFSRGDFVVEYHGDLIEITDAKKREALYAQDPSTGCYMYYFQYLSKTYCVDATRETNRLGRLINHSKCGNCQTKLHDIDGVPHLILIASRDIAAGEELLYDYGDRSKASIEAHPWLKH", "test": "Inhibition of SETD8 (unknown origin) using SAM as substrate at 10 uM by time-resolved fluorescence assay relative to control"}, "[19]": {"test_system": "RD", "test": "Antiproliferative activity against human RD cells assessed as reduction in clone formation rate at 5 uM for 1 to 2 weeks with fresh medium replacement for every 2 to 3 days by crystal violet staining based microscopic analysis", "type": "functional, cell-based", "settings": "time 1-2 weeks"}, "[20]": {"biological_target": "T2, Histone-lysine N-methyltransferase EZH2", "test": "Inhibition of human EZH2 using SAM as substrate at 10 uM by time-resolved fluorescence assay relative to control"}, "[21]": {"test_system": "RD", "test": "Antitumor activity against human RD cells xenografted in BALB/c nude mouse assessed as tumor growth inhibition at 10 to 20 mg/kg, ip administered for 5 consecutive days followed by 2 rest days for 3 weeks", "type": "functional", "settings": "dose 10-20 mg/kg"}, "[22]": {"biological_target": "T2, Histone-lysine N-methyltransferase EZH2", "test": "Binding affinity to EZH2 in human RD cells assessed as decrease in pronase E mediated EZH2 hydrolyzation incubated for 1 hr by DARTS analysis", "type": "cell-based", "settings": "dose 5-20 µM"}, "[23]": {"biological_target": "T2, Histone-lysine N-methyltransferase EZH2", "test": "Binding affinity to EZH2 in human RD cells assessed as increase in protein thermal stability at 5 uM incubated for 4 hrs by CETSA based Western blot analysis", "type": "cell-based"}, "[24]": {"test": "Toxicity in BALB/c nude mouse xenografted with human RD cells assessed as effect on heart viscera index at 10 to 20 mg/kg, ip administered for 5 consecutive days followed by 2 rest days for 3 weeks", "type": "organism-based", "settings": "in vivo, 504 h, dose 10-20 mg/kg"}, "[25]": {"test": "Half life in Sprague-Dawley rat at 10 mg/kg, iv administered for 12 hrs by HPLC analysis", "type": "ADME, organism-based", "settings": "in vivo"}}, "note": "pIC50: −log10 of the molar value. Active and inactive are the calls of the source. No cut-off for these calls is given here.", "data": [{"smiles": "COc1cc2c(NCc3c(C)cc(C)[nH]c3=O)nc(N3CCC(F)(F)CC3)nc2cc1OCCCN1CCCC1", "values": [{"measurement": "Activity", "setting": "[1]", "result": "Active"}, {"measurement": "AUC(0-t) at 12 h", "setting": "[2]", "result": 1940, "unit": "ng·h/mL"}, {"measurement": "AUC", "setting": "[3]", "result": 2476.02, "unit": "ng·h/mL"}, {"measurement": "AUC(0-t) at 24 h", "setting": "[4]", "result": 5350, "unit": "ng·h/mL"}, {"measurement": "Activity", "setting": "[5]", "result": "Non-Toxic"}, {"measurement": "Activity", "setting": "[6]", "result": "Non-Toxic"}, {"measurement": "Tmax", "setting": "[7]", "result": 0.17, "unit": "h"}, {"measurement": "half-life", "setting": "[8]", "result": 4.02, "unit": "h"}, {"measurement": "inhibition", "setting": "[9]", "result": 89.2, "unit": "%"}, {"measurement": "inhibition", "setting": "[10]", "result": 7.79, "unit": "%"}, {"measurement": "Activity", "setting": "[11]", "result": "Active"}, {"measurement": "Activity", "setting": "[12]", "result": "inactive"}, {"measurement": "CL/F", "setting": "[13]", "result": 59.7, "unit": "mL/min/kg"}, {"measurement": "CC50", "setting": "[14]", "result": 19.6, "unit": "µM"}, {"measurement": "pIC50", "setting": "[15]", "result": 8.36}, {"measurement": "Vd", "setting": "[16]", "result": 4.54, "unit": "L/kg"}, {"measurement": "CC50 at 72 h", "setting": "[17]", "result": "> 100", "unit": "µM"}, {"measurement": "inhibition", "setting": "[18]", "result": 11.2, "unit": "%"}, {"measurement": "Activity", "setting": "[19]", "result": "Active"}, {"measurement": "inhibition", "setting": "[20]", "result": 98.3, "unit": "%"}, {"measurement": "TGI", "setting": "[21]", "result": 86.6, "unit": "%"}, {"measurement": "Activity", "setting": "[22]", "result": "Dose-Dependent Effect"}, {"measurement": "Activity", "setting": "[23]", "result": "Active"}, {"measurement": "Activity", "setting": "[24]", "result": "Non-Toxic"}, {"measurement": "half-life", "setting": "[25]", "result": 3.47, "unit": "h"}]}]}
